In one assay the target is T1, MET D1228N (Homo sapiens, UniProt P08581, D1228N).
T1 construct: purchased Signalchem M52-12IG
As to the kind of experiment: MET D1228N Mobility Shift Assay. As to conditions: biochemical assay IC50; 100 μM ATP, 60 minute kinase reaction. How it is done:
(§1) Small molecule inhibition of MET D1228N kinase activity was evaluated using a fluorescence -based microfluidic mobility shift assay. MET D1228N catalyzes the production of ADP from ATP during phosphoryl transfer to the substrate peptide, FLPeptide30 (5-FAM-KKKKEEIYFFF -CONH2) (Perkin Elmer, 760430). MET D1228N enzyme (Signalchem, M52-12IG) at 0.313 nM was prepared with 10 mM MgCl2 and 1.5 μM substrate peptide in a buffer containing 50 mM HEPES, 1 mM EGTA, 0.01% Brij-35, 0.05% BSA, and 2 mM DTT and pre-incubated at room temperature for 30 min prior to the start of the reaction. 100 μM ATP was added to start the reaction. The mobility shift assay electrophoretically separates the fluorescently labeled peptides (substrate and phosphorylated product) following the 60 minute kinase reaction. The reaction was terminated by addition of 0.5 M EDTA. Both substrate and product were measured and the ratio of these values used to generate % conversion of substrate to product by the LabChip EZ reader (Perkin Elmer). ICso values were calculated using the inhibition of conversion ratio using Dotmatics Knowledge Solutions Studies curve fitting environment (Dotmatics, Bishops Stortford, UK, CM23) and are presented in Table 2.

Assay [1] has as its target T2, Ba/F3-TPR-MET-D1228N cells (Homo sapiens, UniProt P08581, D1228N, cells depend on it).
T2 construct: fused on or other part: P12270 (Nucleoprotein TPR)
The assay is described as follows: CellTiter-Glo Cell Viability Assay, Ba/F3-TPR-MET-D1228N. Type of assay: cell-based. As to conditions: 72 hours. Here is the method:
(§2) Ba/F3-TPR-MET and Ba/F3-TPR-MET-D1228N cells were seeded at 3000 cells per well in a 96 well plate in 90 μL growth media and allowed to incubate overnight at 37° C. with 5% CO2. The following day, compounds were serially diluted from a 10 mM top dose for a 9-point 3-fold dilution curve in DMSO. Following a 100-fold dilution in growth media, a further 10-fold dilution was made into the cell plate for a final volume of 100 μL and 0.1% DMSO. Compounds and cells were incubated together for 72 hours at 37° C. with 5% CO2. The CellTiter-Glo® 2.0 Assay determines the number of viable cells in culture by quantifying ATP, which indicates the presence of metabolically active cells. Luminescence readout is directly proportional to the number of viable cells in culture. CellTiter-Glo reagent (Promega, G9243) and cell plates were allowed to equilibrate to room temperature for at least 15 min, then 100 μL of CellTiter-Glo was added to each well for a 1:1 ratio of reagent to media. Samples were placed on a shaker for 2 min prior to a 30 min incubation at room temperature protected from light. Luminescence was read on a Perkin Elmer Envision plate reader 2105 and used to calculate ICso values within the Dotmatics Knowledge Solutions Studies curve fitting environment (Dotmatics, Bishops Stortford, UK, CM23) and are presented in Table 2.
For orientation: In ATP-based viability assays light output follows the ATP content of the culture.

Another assay has as its target T3, Ba/F3-TPR-MET cells (Homo sapiens, UniProt P08581).
T3 construct: fused on or other part: P12270 (Nucleoprotein TPR)
As to the kind of experiment: CellTiter-Glo Cell Viability Assay, Ba/F3-TPR-MET. Type of assay: cell-based. As to conditions: 72 hours. Here is the method: as §2

The target in the next assay is T4, MET (Homo sapiens, UniProt P08581).
T4 construct: purchased Carna Biosciences 08-151
As to the kind of experiment: MET Mobility Shift Assay. As to conditions: biochemical assay IC50; 100 μM ATP, 60 minute kinase reaction. How it is done:
as §1, with “MET” for “MET D1228N”, “a fluorescence-based” for “a fluorescence -based”, “FLPeptide30 (5-FAM-KKKKEEIYFFF-CONH2)” for “FLPeptide30 (5-FAM-KKKKEEIYFFF -CONH2)”, “MET enzme (Carna Biosciences, 08-151)” for “MET D1228N enzyme (Signalchem, M52-12IG)”, “at 0.625” for “at 0.313”

T3 sequence (P08581 whole entry, change not shown, the tested form may be a part): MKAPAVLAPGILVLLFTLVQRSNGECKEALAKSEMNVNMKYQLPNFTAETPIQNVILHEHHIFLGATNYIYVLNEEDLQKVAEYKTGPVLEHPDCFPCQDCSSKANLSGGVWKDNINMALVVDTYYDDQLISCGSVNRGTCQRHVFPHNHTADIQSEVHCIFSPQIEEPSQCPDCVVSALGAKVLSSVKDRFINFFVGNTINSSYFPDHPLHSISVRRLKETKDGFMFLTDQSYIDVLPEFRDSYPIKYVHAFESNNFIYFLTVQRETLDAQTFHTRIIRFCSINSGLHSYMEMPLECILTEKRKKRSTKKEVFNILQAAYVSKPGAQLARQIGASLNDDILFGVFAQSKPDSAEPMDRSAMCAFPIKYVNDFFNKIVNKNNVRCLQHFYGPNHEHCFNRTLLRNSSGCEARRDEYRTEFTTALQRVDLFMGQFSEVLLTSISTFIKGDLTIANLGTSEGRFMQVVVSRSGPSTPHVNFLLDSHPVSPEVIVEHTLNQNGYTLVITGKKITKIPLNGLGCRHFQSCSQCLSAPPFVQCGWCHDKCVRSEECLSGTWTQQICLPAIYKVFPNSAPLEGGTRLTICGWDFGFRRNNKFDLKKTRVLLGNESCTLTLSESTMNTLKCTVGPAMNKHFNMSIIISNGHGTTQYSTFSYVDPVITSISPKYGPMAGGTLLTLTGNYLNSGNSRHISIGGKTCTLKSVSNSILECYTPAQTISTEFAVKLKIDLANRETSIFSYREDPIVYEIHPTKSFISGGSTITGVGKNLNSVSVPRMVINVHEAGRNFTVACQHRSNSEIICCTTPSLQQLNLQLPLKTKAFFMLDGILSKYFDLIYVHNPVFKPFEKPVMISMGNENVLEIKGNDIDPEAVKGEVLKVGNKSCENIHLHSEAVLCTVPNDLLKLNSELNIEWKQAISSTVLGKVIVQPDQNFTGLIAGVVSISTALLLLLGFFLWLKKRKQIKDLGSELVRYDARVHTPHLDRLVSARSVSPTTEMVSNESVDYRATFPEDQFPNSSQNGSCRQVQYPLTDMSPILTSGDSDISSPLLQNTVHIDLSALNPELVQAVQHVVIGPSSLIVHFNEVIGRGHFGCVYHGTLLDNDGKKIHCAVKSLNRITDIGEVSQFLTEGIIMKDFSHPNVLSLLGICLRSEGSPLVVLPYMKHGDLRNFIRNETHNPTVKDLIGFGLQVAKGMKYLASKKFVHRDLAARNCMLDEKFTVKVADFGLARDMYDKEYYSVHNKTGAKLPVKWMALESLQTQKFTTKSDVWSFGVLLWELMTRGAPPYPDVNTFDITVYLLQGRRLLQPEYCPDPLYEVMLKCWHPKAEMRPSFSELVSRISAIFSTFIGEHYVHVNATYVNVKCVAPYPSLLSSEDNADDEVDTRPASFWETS
T1 sequence (P08581 25-1390 D1228N): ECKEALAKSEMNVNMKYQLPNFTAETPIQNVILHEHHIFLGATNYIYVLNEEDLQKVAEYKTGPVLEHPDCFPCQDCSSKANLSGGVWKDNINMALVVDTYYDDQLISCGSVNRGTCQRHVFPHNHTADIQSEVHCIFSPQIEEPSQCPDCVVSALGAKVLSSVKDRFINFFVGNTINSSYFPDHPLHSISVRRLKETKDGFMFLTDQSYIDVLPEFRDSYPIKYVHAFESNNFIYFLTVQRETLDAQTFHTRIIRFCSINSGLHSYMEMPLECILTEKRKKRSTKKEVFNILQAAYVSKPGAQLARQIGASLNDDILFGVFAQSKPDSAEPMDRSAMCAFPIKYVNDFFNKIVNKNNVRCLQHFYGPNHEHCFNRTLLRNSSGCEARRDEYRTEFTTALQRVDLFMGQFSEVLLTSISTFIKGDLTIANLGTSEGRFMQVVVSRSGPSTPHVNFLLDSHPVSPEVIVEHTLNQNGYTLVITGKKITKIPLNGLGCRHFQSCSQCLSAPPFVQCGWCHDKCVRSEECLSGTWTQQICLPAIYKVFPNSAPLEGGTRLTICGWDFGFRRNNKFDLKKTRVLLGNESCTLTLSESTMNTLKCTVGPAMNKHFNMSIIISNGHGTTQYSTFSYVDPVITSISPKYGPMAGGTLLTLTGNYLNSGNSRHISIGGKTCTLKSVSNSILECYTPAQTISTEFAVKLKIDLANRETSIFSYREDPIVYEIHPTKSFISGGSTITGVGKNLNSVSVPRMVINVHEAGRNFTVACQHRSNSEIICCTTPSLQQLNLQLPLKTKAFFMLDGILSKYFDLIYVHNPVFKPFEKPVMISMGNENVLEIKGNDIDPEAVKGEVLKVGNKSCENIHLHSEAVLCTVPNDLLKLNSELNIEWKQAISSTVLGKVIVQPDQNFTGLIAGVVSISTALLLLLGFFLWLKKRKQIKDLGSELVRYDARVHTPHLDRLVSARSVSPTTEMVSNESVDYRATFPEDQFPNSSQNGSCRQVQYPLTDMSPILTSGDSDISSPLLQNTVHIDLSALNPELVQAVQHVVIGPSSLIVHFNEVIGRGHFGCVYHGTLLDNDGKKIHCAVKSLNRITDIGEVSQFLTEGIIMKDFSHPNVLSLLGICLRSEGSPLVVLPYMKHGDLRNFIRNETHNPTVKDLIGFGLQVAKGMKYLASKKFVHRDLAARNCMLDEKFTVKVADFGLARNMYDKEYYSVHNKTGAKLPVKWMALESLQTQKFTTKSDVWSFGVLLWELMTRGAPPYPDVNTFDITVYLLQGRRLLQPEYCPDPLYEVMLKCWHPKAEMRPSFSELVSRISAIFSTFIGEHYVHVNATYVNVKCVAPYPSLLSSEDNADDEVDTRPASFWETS
T2 sequence (P08581 whole entry D1228N, the tested form may be a part): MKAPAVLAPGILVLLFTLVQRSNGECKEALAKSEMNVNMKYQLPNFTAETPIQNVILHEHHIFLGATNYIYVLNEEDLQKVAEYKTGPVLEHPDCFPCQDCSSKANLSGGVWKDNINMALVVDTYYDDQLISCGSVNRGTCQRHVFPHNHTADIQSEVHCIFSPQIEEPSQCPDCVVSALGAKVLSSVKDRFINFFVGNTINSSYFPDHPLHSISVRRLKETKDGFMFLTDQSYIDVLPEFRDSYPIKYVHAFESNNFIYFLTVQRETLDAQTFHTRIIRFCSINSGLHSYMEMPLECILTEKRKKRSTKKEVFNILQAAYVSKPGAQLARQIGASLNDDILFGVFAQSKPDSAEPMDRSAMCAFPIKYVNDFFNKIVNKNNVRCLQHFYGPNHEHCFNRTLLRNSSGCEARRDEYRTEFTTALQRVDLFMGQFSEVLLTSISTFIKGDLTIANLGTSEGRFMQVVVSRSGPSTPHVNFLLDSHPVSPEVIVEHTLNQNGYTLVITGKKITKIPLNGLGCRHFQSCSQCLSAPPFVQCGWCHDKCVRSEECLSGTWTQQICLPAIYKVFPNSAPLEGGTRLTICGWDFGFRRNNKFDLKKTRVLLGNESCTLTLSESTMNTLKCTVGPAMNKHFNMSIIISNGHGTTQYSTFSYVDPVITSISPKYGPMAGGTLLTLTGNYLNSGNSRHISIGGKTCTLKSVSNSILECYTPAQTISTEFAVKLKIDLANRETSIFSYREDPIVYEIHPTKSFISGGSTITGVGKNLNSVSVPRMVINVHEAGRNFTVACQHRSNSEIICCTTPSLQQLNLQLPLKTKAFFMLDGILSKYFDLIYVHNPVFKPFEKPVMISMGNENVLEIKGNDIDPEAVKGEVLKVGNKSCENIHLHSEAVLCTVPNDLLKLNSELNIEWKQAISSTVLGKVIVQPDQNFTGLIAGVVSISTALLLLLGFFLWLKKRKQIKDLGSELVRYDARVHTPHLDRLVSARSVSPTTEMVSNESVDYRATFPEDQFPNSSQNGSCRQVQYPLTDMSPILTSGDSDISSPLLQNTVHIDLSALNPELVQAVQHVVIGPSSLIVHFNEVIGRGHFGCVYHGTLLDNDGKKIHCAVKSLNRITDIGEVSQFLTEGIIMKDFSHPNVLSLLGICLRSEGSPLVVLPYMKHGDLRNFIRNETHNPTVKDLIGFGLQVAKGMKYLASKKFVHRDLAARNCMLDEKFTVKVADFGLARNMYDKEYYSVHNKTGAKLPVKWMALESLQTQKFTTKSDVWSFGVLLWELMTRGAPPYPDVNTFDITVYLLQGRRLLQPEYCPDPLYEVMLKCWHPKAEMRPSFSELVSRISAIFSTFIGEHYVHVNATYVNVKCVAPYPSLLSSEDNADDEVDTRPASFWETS

As to `CNCCCOc1cc2nccc(Oc3cc(F)c(NC(=O)c4cnccc4OC)cc3F)c2cc1OC` [Example 22, N-[2,5-difluoro-4-({6-methoxy-7-[3-(methylamino)propoxy]quinolin-4-yl}oxy)phenyl]-4-methoxypyridine-3-carboxamide], the IC50 on MET D1228N and on MET was not above 100 nM in each case. In addition, the EC50 (in assay [1]; on Ba/F3-TPR-MET cells) was 100 to 1000 nM each time.
As to `CNCCOc1cc2nccc(Oc3c(F)cc(NC(=O)c4cnccc4OCCO)cc3F)c2cc1OC` [Example 63, N-[3,5-difluoro-4-({6-methoxy-7-[2-(methylamino)ethoxy]quinolin-4-yl}oxy)phenyl]-4-(2-hydroxyethoxy)pyridine-3-carboxamide], the IC50 at MET D1228N and at MET was not above 100 nM each time. Besides, the EC50 (in assay [1]; on Ba/F3-TPR-MET cells) was 100 to 1000 nM in each case.
For `CNCCOc1cc2nccc(Oc3ccc(NC(=O)c4c(OC)ccnc4F)c(F)c3F)c2cc1OC` [Example 15, N-(2,3-difluoro-4-((6-methoxy-7-(2-(methylamino)ethoxy)quinolin-4-yl)oxy)phenyl)-2-fluoro-4-methoxypyridine-3-carboxamide], the IC50 at MET D1228N and on MET was not above 100 nM each time. For the same compound, the EC50 (in assay [1]; on Ba/F3-TPR-MET cells) was 100 to 1000 nM each time.
With `CNCCCOc1cc2nccc(Oc3c(F)cc(NC(=O)c4cnccc4OC4CC4)cc3F)c2cc1OC` [Example 84, 4-cyclopropoxy-N-(3,5-difluoro-4-((6-methoxy-7-(3-(methylamino)propoxy)quinolin-4-yl)oxy)phenyl)pyridine-3-carboxamide], the half-maximal inhibitory concentration (IC50) on MET D1228N and at MET was not above 100 nM each time. Besides, the EC50 (commonly the concentration at which the effect is half-maximal) is not above 100 nM in assay [1] and 100 to 1000 nM at Ba/F3-TPR-MET cells.
`CNCCOc1ccc2c(Oc3c(F)cc(NC(=O)c4cnc(C)cc4OC4CC4)cc3F)ccnc2c1` [Example 115, 4-cyclopropoxy-N-(3,5-difluoro-4-((7-(2-(methylamino)ethoxy)quinolin-4-yl)oxy)phenyl)-6-methylpyridine-3-carboxamide]: the IC50 at MET D1228N and at MET was not above 100 nM in each case. Also, the EC50 (in assay [1]; on Ba/F3-TPR-MET cells) was not above 100 nM throughout.
In the case of `COCCOc1cnc2c(Oc3c(F)cc(NC(=O)c4cnccc4OC)cc3F)ccnc2c1` [Example 139, N-(3,5-difluoro-4-((7-(2-methoxyethoxy)-1,5-naphthyridin-4-yl)oxy)phenyl)-4-methoxypyridine-3-carboxamide], the IC50 at MET D1228N and at MET was not above 100 nM each time. Also, the EC50 (in assay [1]; at Ba/F3-TPR-MET cells) was not above 100 nM throughout.
Take `CNCCOc1cc2nccc(Oc3cc(F)c(NC(=O)c4cnccc4OC)cc3F)c2cc1OC` [Example 24, N-[2,5-difluoro-4-({6-methoxy-7-[2-(methylamino)ethoxy]quinolin-4-yl}oxy)phenyl]-4-methoxypyridine-3-carboxamide]: the IC50 on MET D1228N and at MET was not above 100 nM in each case. Moreover, the figures for the EC50 (in assay [1]; on Ba/F3-TPR-MET cells) were not above 100 nM and 100 to 1000 nM, respectively.
As for `CNCCCOc1cc2nccc(Oc3c(F)cc(NC(=O)c4c(OC)ccnc4F)cc3F)c2cc1OC` [Example 20, N-(3,5-difluoro-4-((6-methoxy-7-(3-(methylamino)propoxy)quinolin-4-yl)oxy)phenyl)-2-fluoro-4-methoxypyridine-3-carboxamide], the concentration for half-maximal inhibition (IC50) on MET D1228N and at MET was not above 100 nM in each case. Further, the EC50 (in assay [1]; on Ba/F3-TPR-MET cells) was not above 100 nM each time.
For `NC1(COc2ccc3c(Oc4c(F)cc(NC(=O)c5cnccc5OC5CC5)cc4F)ccnc3c2)CC1` [Example 88], the IC50 on MET D1228N and on MET was not above 100 nM in each case. Moreover, the results for the EC50 (in assay [1]; at Ba/F3-TPR-MET cells) were not above 100 nM and 100 to 1000 nM, respectively.
Take `CNCCCOc1cc2nccc(Oc3c(F)cc(NC(=O)c4cnccc4OC4COC4)cc3F)c2cc1OC` [Example 86, N-(3,5-difluoro-4-((6-methoxy-7-(3-(methylamino)propoxy)quinolin-4-yl)oxy)phenyl)-4-(oxetan-3-yloxy)pyridine-3-carboxamide]: the IC50 on MET D1228N and at MET was not above 100 nM throughout. For the same compound, the EC50 (in assay [1]; on Ba/F3-TPR-MET cells) was 100 to 1000 nM in each case.
With `COCCOc1ccc2c(Oc3c(F)cc(NC(=O)c4cnccc4OC)cc3F)ccnc2c1` [Example 42, N-(3,5-difluoro-4-{[7-(2-methoxyethoxy)quinolin-4-yl]oxy}phenyl)-4-methoxypyridine-3-carboxamide], the IC50 at MET D1228N and on MET was not above 100 nM throughout. The EC50 is not above 100 nM in assay [1] and 100 to 1000 nM on Ba/F3-TPR-MET cells.
For the compound `COc1cc2nccc(Oc3c(F)cc(NC(=O)c4cnccc4OC4CC4)cc3F)c2cc1OC` [Example 91, 4-cyclopropoxy-N-{4-[(6,7-dimethoxyquinolin-4-yl)oxy]-3,5-difluorophenyl}pyridine-3-carboxamide], the IC50 at MET D1228N and on MET was not above 100 nM throughout. Also, the EC50 (in assay [1]; at Ba/F3-TPR-MET cells) was not above 100 nM throughout.
Consider `COc1cc2nccc(Oc3c(F)cc(NC(=O)c4cnccc4OC)cc3F)c2cc1OC` [Example 34, N-(4-((6,7-dimethoxyquinolin-4-yl)oxy)-3,5-difluorophenyl)-4-methoxypyridine-3-carboxamide], for which the IC50 at MET D1228N and at MET was not above 100 nM each time. Also, the EC50 in assay [1] was not above 100 nM; at Ba/F3-TPR-MET cells it was 100 to 1000 nM.
For the compound `CC(C)(CO)Oc1ccc2c(Oc3c(F)cc(NC(=O)c4cnccc4OC4CC4)cc3F)ccnc2c1` [Example 108, 4-cyclopropoxy-N-(3,5-difluoro-4-((7-((1-hydroxy-2-methylpropan-2-yl)oxy)quinolin-4-yl)oxy)phenyl)pyridine-3-carboxamide], the IC50 on MET D1228N and on MET was not above 100 nM each time. Moreover, the EC50 (in assay [1]; on Ba/F3-TPR-MET cells) was 1000 to 10000 nM throughout.
As for `COc1cc2c(Oc3c(F)cc(NC(=O)c4cnccc4OCC(F)F)cc3F)ccnc2cc1OCCO` [Example 135, N-(3,5-difluoro-4-((7-(2-hydroxyethoxy)-6-methoxyquinolin-4-yl)oxy)phenyl)-4-(2,2-difluoroethoxy)pyridine-3-carboxamide], the IC50 on MET D1228N and on MET was not above 100 nM in each case. In addition, the EC50 (in assay [1]; at Ba/F3-TPR-MET cells) was not above 100 nM in each case.
As to `COc1cc2c(Oc3c(F)cc(NC(=O)c4ccccc4F)cc3F)ccnc2cc1OCCO` [Example 134, N-(3,5-difluoro-4-((7-(2-hydroxyethoxy)-6-methoxyquinolin-4-yl)oxy)phenyl)-2-fluorobenzamide], the IC50 on MET D1228N and on MET was not above 100 nM in each case. In addition, the EC50 (in assay [1]; at Ba/F3-TPR-MET cells) was not above 100 nM in each case.
As to `CNCCOc1cc2nccc(Oc3c(F)cc(NC(=O)c4c(OC)ccnc4F)cc3F)c2cc1OC` [Example 4, N-(3,5-difluoro-4-((6-methoxy-7-(2-(methylamino)ethoxy)quinolin-4-yl)oxy)phenyl)-2-fluoro-4-methoxypyridine-3-carboxamide], the half-maximal inhibitory concentration (IC50) at MET D1228N and at MET was not above 100 nM in each case. Moreover, the EC50 (in assay [1]; at Ba/F3-TPR-MET cells) was 100 to 1000 nM throughout.

Values taken from patent US11753395B2 (Kinnate Biopharma Inc., priority 2021, dated 2023).
